# Patent US20080045592A1, “Method of inhibiting growth and proliferation of listeria monocytogenes using levulinate” (Utah State University, priority 2006, published 2008)
# Read-outs that look alike come from different tables or passages of the source.
# Columns and labels:
# [1] = tested on: pathogenic bacteria (including, but not limited to Listeria monocytogenes); details: 2% applied at 54° C. to carcass tissues, stored 4 to 8° C. for 16 weeks
# Protocol: This experiment tests the extent of residual anti-pathogenic activity of levulinic acid (2%) topically applied to carcasses by dipping, spraying, or washing as compared to lactic acid (2%) or acetic acid (2%). Briefly, levulinic acid, lactic acid and acetic acid are independently applied at 54° C. to samples of carcass tissues from beef, pork, lamb, and poultry (or any other species) by topical application. Samples are inoculated with pathogenic bacteria (including, but not limited to Listeria monocytogenes), vacuum packaged, and stored (4 to 8° C.) for 16 weeks. Pathogen counts are determined at 0, 2, 4, 8, 12, and 16 weeks.
# [2] = tested on: pathogenic bacteria (including, but not limited to, Listeria monocytogenes); details: 0.5, 1.0, 2.0% applied at temperatures greater than 54° C. (68, 77° C.); comparators 2% at 54° C.
# Protocol: Samples are vacuum packaged and stored at 4° C. for 12 hours, and pathogen counts are determined.
# [3] = tested on: pathogenic bacteria (including, but not limited to, Listeria monocytogene); details: addition or application to any food, stored at 4 to 8° C. for up to 16 weeks
# Protocol: Pathogen counts are determined at 0, 2, 4, 8, 12, and 16 weeks.
# [4] = tested on: pathogenic bacteria including, but not limited to, Listeria monocytogenes; details: 2% applied at 54° C. to carcass tissue, stored at 4° C. for 12 hours
# Protocol: This experiment tests the extent of decontamination achieved by topical application of levulinic acid to carcass meats as compared to lactic and acetic acids. Briefly, carcass tissues samples from beef, pork, lamb, and poultry (or any other species) are inoculated with pathogenic bacteria including, but not limited to, Listeria monocytogenes. Levulinic acid (2%), lactic acid (2%), and acetic acid (2%) are independently applied at 54° C. to individual meat samples by washing, dipping, or spraying. Samples are vacuum packaged and stored at 4° C. for 12 hours, and pathogen counts are determined.
# [5] = tested on: cocktail of 5 pathogenic strains of L. monocytogenes; details: bologna slices surface contacted with 1 to 3% solutions, stored at 4° C. for 16 weeks
# Description: This experiment tests the residual anti-Listeria activity imparted by topical application of levulinate to ready-to-eat meat product. In this experiment, levulinic acid is topically applied to a ready-to-eat meat product, and residual anti-Listeria activity followed in a post-treatment challenge. Briefly, bologna slices are surface contacted (spray, wash, or dips) with solutions of 1 to 3% levulinic […] acid. The slices are inoculated with a cocktail of 5 pathogenic strains of L. monocytogenes. Samples are vacuum packaged and stored at 4° C. for 16 weeks. Pathogen counts are determined at 0, 2, 4, 8, 12 and 16 weeks.
# [6] = tested on: 5 strain cocktail of L. monocytogenes; details: for inhibiting growth of L. monocytogenes, compared with sodium lactate alone or sodium lactate combined with sodium diacetate: 2° C., comparators at 2%; for growth of L. monocytogenes: entire 12 weeks of storage at 2° C.
# [7] = tested on: 5 strain cocktail of L. monocytogenes; details: for inhibition of growth of L. monocytogenes, compared with sodium lactate alone or sodium lactate combined with sodium diacetate: 2° C., comparators at 2%; for growth of L. monocytogenes: entire 12 weeks of storage at 2° C.
compound,measurement,setting,value
"CC(=O)CCC(=O)O [levulinic acid, 4-oxopentanoic acid]",residual anti-pathogenic activity as compared to lactic acid and acetic acid,[1],equal or greater residual anti-pathogenic activity
same,initial surface decontamination activity against pathogenic bacteria as compared to fixed concentrations of lactic acid or acetic acid at a fixed temperature,[2],significant initial surface decontamination activity
same,initial decontamination and residual activity against pathogenic bacteria,[3],significant initial decontamination and residual activity
same,decontamination of pathogens as compared to lactic acid and acetic acid,[4],equal or greater decontamination
same,proliferation of Listeria bacteria in treated meat samples,[5],significant decrease
CC(=O)CCC(=O)O [levulinate],peak levels of growth of L. monocytogenes,"[6]; 1% in turkey product, after 12 weeks of storage at 2° C.",greatly inhibited
same,growth of L. monocytogenes compared to the control,"[6]; 1% in turkey product, vacuum packaged, stored at 2° C., two trials averaged",delayed growth
CC(=O)CCC(=O)[O-].[Na+] [sodium levulinate],"inhibiting growth of L. monocytogenes, compared with sodium lactate alone or sodium lactate combined with sodium diacetate",[6]; 2% in turkey product,more effective
same,growth of L. monocytogenes,[6]; 2% in turkey product,completely inhibited growth
same,"inhibiting growth of L. monocytogenes, compared with sodium lactate alone or sodium lactate combined with sodium diacetate",[6]; 3% in turkey product,more effective
same,growth of L. monocytogenes,[6]; 3% in turkey product,completely inhibited growth
same,"inhibition of growth of L. monocytogenes, compared with sodium lactate alone or sodium lactate combined with sodium diacetate",[7]; 1% in bologna,as inhibitory
same,growth of L. monocytogenes,[7]; 1% in bologna,completely inhibited growth
same,"inhibition of growth of L. monocytogenes, compared with sodium lactate alone or sodium lactate combined with sodium diacetate",[7]; 2% in bologna,as inhibitory
same,growth of L. monocytogenes,[7]; 2% in bologna,completely inhibited growth
same,"inhibition of growth of L. monocytogenes, compared with sodium lactate alone or sodium lactate combined with sodium diacetate",[7]; 3% in bologna,as inhibitory
same,growth of L. monocytogenes,[7]; 3% in bologna,completely inhibited growth
